# Measured values from article PMC11418745 (Molecular cell, 2023).
# Read-outs that look alike come from different tables or passages of the source.
# B1: E. coli HerA (EcHerA) co-expressed with SIR2 as the SIR2-HerA complex (enzyme)
# chain: MSLFKLTEISAIGYVVGLEGERIRINLHEGLQGRLASHRKGVSSVTQPGDLIGFDAGNILVVARVTDMAFVEADKAHKANVGTSDLADIPLRQIIAYAIGFVKRELNGYVFISEDWRLPALGSSAVPLTSDFLNIIYSIDKEELPKAVELGVDSRTKTVKIFASVDKLLSRHLAVLGSTGYGKSNFNALLTRKVSEKYPNSRIVIFDINGEYAQAFTGIPNVKHTILGESPNVDSLEKKQQKGELYSEEYYCYKKIPYQALGFAGLIKLLRPSDKTQLPALRNALSAINRTHFKSRNIYLEKDDGETFLLYDDCRDTNQSKLAEWLDLLRRRRLKRTNVWPPFKSLATLVAEFGCVAADRSNGSKRDAFGFSNVLPLVKIIQQLAEDIRFKSIVNLNGGGELADGGTHWDKAMSDEVDYFFGKEKGQENDWNVHIVNMKNLAQDHAPMLLSALLEMFAEILFRRGQERSYPTVLLLEEAHHYLRDPYAEIDSQIKAYERLAKEGRKFKCSLIVSTQRPSELSPTVLAMCSNWFSLRLTNERDLQALRYAMESGNEQILKQISGLPRGDAVAFGSAFNLPVRISINQARPGPKSSDAVFSEEWANCTELRC
# B2: E. coli SIR2 (EcSIR2) co-expressed with HerA as the SIR2-HerA complex (enzyme)
# chain: MSIYQGGNKLNEDDFRSHVYSLCQLDNVGVLLGAGASVGCGGKTMKDVWKSFKQNYPELLGALIDKYLLVSQIDSDNNLVNVELLIDEATKFLSVAKTRRCEDEEEEFRKILSSLYKEVTKAALLTGEQFREKNQGKKDAFKYHKELISKLISNRQPGQSAPAIFTTNYDLALEWAAEDLGIQLFNGFSGLHTRQFYPQNFDLAFRNVNAKGEARFGHYHAYLYKLHGSLTWYQNDSLTVNEVSASQAYDEYINDIINKDDFYRGQHLIYPGANKYSHTIGFVYGEMFRRFGEFISKPQTALFINGFGFGDYHINRIILGALLNPSFHVVIYYPELKEAITKVSKGGGSEAEKAIVTLKNMAFNQVTVVGGGSKAYFNSFVEHLPYPVLFPRDNIVDELVEAIANLSKGEGNVPF
# B3: E. coli SIR2 (EcSIR2), expressed alone (enzyme)
# chain: B2 chain
# How the values were obtained:
# [1] = target: T1, SIR2-HerA complex (SIR2 NADase site) (Escherichia coli, UniProt A0ABF7PQ24); assay: ε-NAD+ fluorescence NADase assay; format: biochemical; conditions: 0.5 μM protein, 20 mM Tris pH 8.0, 75 mM KCl, 2 mM MgCl2, 33 °C
# [2] = target: T1, SIR2-HerA complex (SIR2 NADase site); assay: cryo-EM structure, […] Å; format: binding; conditions: SIR2 active site; 12:6 complex (also 12:5 8SUB and 12:4 8SUW)
# EcSIR2 dodecamer = EcSIR2 dodecamer (Escherichia coli, UniProt A0ABF7PQ24); assay: cryo-EM structure, […] Å; format: binding; conditions: active site of SIR2 dodecamer without HerA; not hydrolysed
# [3] = target: SIR2-HerA complex (HerA nucleotide site) (Escherichia coli, UniProt A0ABF7PQ25); assay: ATPase kit, colorimetric phosphate; format: biochemical; conditions: 20 mM Tris pH 8.0, 75 mM KCl, 2 mM MgCl2, 37 °C
# cryo-EM structure [4] = target: the molecule itself; assay: cryo-EM structure
# cryo-EM structure [5] = target: the molecule itself; assay: cryo-EM structure; remark: listed apart in the source
molecule,measurement,setting,value
NC(=O)c1ccc[n+]([C@@H]2O[C@H](COP(=O)(O)OP(=O)(O)OC[C@H]3O[C@@H](n4cnc5c4ncn4ccnc54)[C@H](O)[C@@H]3O)[C@@H](O)[C@H]2O)c1 [ε-NAD^+],ε-NAD+ fluorescence NADase assay,[1],"To test the NADase activities of the SIR2-HerA complex and SIR2 alone, ε-NAD^+ assays"
Nc1ncnc2c1ncn2[C@@H]1O[C@H](COP(=O)(O)OP(=O)(O)OC[C@H]2OC(O)[C@H](O)[C@@H]2O)[C@@H](O)[C@H]1O (stereo partly shown) [ADPR],"cryo-EM structure, 2.83 Å",[2],"an ADPR molecule, the product of NAD^+ hydrolysis, occupied the active site of EcSIR2"
NC(=O)c1ccc[n+]([C@@H]2O[C@H](COP(=O)(O)OP(=O)(O)OC[C@H]3O[C@@H](n4cnc5c(N)ncnc54)[C@H](O)[C@@H]3O)[C@@H](O)[C@H]2O)c1 [NAD^+],"cryo-EM structure, 3.6 Å",EcSIR2 dodecamer,identified an NAD^+ molecule in the active site of EcSIR2
Nc1ncnc2c1ncn2[C@@H]1O[C@H](COP(=O)(O)OP(=O)(O)OP(=O)(O)O)[C@@H](O)[C@H]1O [ATP],"ATPase kit, colorimetric phosphate",[3],"the SIR2-HerA complex, not HerA alone, can hydrolyze ATP"
B1,stoichiometry N,cryo-EM structure [4],6
B2,stoichiometry N,cryo-EM structure [4],12
B3,stoichiometry N,cryo-EM structure [5],12
